The nature of assay [1]: DPPH (2,2-diphenyl-1-picryl-hydrazyl) spectrophotometric antioxidant test in ethanol, 517 nm. Conditions: DPPH 6.0×10^−6 M. It counts as biochemical. The source says: The antioxidant activity of the combination which is the object of the present invention can be assayed in vitro using the DPPH (2,2-diphenyl-1-picryl-hydrazyl) spectrophotometric method. This method makes it possible to determine the antioxidant potential of a molecule to be assayed by measuring the variation of the absorbance of the radical DPPH in its presence at the wavelength of 517 nm (as reported in the literature) [Blois M. S., Antioxidant determination by the use of a stable free radical—Nature, 181:1199-1200; (1958)], according to the reaction: Z·+AH=ZH+A· [1] where: • Z· is the radical DPPH • AH is the single antioxidant (reducing) molecule present in the composition or in the extract • ZH is the reduced form of DPPH • A· is the free radical produced by oxidation of the antioxidant molecule.
The greater the reduction of the absorbance of the radical DPPH in solution, the greater will be the antioxidant potential of the molecule studied. The final results of the assay are expressed as EC50, i.e. as the concentration of antioxidant molecule at which there is a 50% reduction of the DPPH radical according to the following formula: % Inhibition=[A(T0)−A(Tn/A(T0)] • A(T0)=absorbance of the control sample at time 0 • A(Tn)=absorbance in the presence of the antioxidant sample at time n.
The antioxidant capacity of the combination according to the present invention was assayed in ethanol, using a DPPH concentration of 6.0×10^−6 M and final concentrations of each extract, previously solubilised in ethanol, ranging from 1 mcg/ml to 3 mg/ml. For the purposes of evaluating the synergistic effect the extracts were also assayed in a mixture in ratios ranging from 0.1:1 to 9.9:1. The myrtle and rosemary extracts were each subjected to the same extraction procedure, selected from among those indicated above, then brought to dryness and redissolved in ethanol at the desired concentrations so as to standardise the evaluation methodology. The absorbance was then determined at the wavelength of 517 nm in 1 cm quartz cells.

Assay [2] relates to rat pheochromocytoma PC12 cell line. The experiment in a line: ATPLite test: ATP production of PC12 cells after H2O2-induced toxicity. The settings on record: H2O2 200 μM without addition of extracts. The format is cell-based. The source says:
The test used was the ATPLite™ test (Perkin Elmer, Milan), an ATP monitoring system based on luciferase, which permits assessment of the cytostatic and proliferative effects of various biological compounds. [Cree I. A. and Andreotti P. E. Measurement of cytotoxicity by ATP-based luminescence assay in primary cell cultures and cell lines—Toxicology in Vitro, 11, 553-556; (1997); Guan S., Bao Y. M., Jiang B., An L. Protective effect of protocatechuic acid from Alpinia oxyphylla on hydrogen peroxide-induced oxidative PC12 cell death—Eur. J. Pharmacol. 24: 538; (2006)].
The rat pheochromocytoma PC12 cell line (European Collection of Cell Cultures—ECACC, Sigma Aldrich, Milan) was used to evaluate the potential protective effects of extracts of rosemary (the same extract as described above in example 1) and of myrtle (the same extract as described above in example 2) against the toxicity induced by hydrogen peroxide (H2O2). The cells were grown on 96-well plates treated with poly-D-lysine (Sigma Aldrich, Milan) in D-MEM culture medium added with fetal bovine serum (FBS), penicillin/streptomycin, gentamycin, L-glutamine (all Invitrogen, Milan). […] After 24 hours the activity of the extracts on ATP production was evaluated using a Victor 3 spectrophotometer (Perkin Elmer, Milan). […]
Background: ATP-based viability assays read luminescence as a measure of living cells.

The values that follow come from US8192767B2, “Antioxidant compositions comprising extracts of myrtle and rosemary” (Nuraging Biotech S.R.L., priority 2006, dated 2012).

Each structure is given as a SMILES string.

With `COc1ccc(O)c(C(C)(C)C)c1` [BHA, butylated hydroxyl anisol], the “decrease in the absorbance of DPPH” value is recorded as 96.63% in assay [1] (BHA 0.01 mg/ml in ethanol), 95.41% in assay [1] (BHA 0.1 mg/ml in ethanol) and 92.18% in assay [1] (BHA 1 mg/ml in ethanol).

Turning to `OO` [H2O2, hydrogen peroxide], in assay [2], the “ATP production vs vehicle” value was −80%±4.1.
